In one data set the target is BZP Rat Brain. As to the kind of experiment: PDSP competitive binding assay.
The target of the next data set is hERG (Homo sapiens, UniProt Q12809). As to the kind of experiment: PDSP competitive binding assay (safety/nuisance target).
The mark [1] stands for this setting: dose response curve, given as LogKi with negative sign.

The text below walks through data of publication PMC10756276, “Highly specific σ2R/TMEM97 ligand FEM-1689 alleviates neuropathic pain and inhibits the integrated stress response” (Proceedings of the National Academy of Sciences of the …, 2023).

Where two headings read alike, the source gives them in different places.

One may read the Ki as a dissociation constant, usually derived from enzyme kinetics or from competition with a known ligand.

Sequence of hERG (Q12809 whole entry): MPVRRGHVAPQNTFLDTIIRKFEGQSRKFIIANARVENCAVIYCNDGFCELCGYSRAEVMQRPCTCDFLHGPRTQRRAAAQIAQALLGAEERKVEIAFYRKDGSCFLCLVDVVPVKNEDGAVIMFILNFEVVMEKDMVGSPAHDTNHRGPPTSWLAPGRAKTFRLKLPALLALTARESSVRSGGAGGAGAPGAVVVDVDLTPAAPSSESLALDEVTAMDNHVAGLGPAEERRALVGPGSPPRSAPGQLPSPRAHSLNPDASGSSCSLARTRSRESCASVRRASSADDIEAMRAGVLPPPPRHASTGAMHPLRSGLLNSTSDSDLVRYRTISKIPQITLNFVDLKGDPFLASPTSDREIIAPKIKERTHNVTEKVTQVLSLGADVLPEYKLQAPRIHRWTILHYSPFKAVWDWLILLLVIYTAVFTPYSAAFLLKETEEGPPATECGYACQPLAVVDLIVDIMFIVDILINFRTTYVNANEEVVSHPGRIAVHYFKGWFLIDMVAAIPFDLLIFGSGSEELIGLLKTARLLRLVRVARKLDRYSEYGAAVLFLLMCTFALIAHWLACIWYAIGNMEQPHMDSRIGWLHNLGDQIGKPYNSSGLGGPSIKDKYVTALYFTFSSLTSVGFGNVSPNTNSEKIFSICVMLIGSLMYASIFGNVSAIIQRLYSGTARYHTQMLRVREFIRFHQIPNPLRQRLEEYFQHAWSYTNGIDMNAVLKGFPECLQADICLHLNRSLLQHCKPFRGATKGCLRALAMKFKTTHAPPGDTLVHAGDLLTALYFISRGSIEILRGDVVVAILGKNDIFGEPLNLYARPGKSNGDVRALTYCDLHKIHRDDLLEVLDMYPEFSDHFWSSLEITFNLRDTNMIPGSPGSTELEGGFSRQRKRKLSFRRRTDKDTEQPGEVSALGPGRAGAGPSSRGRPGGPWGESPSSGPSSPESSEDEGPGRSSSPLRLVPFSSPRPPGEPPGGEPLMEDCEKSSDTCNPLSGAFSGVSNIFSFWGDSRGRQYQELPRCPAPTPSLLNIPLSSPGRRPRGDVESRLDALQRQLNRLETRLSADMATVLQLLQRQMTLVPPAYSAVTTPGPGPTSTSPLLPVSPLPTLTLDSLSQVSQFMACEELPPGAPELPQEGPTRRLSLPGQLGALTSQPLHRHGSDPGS

For `OCCCN1CC[C@@H]2C[C@H]1c1cc(-c3ccc(C(F)(F)F)cc3)ccc12` [FEM-1689], the “LogKi, BZP Rat Brain” value at BZP Rat Brain (setting [1]) is listed as -5.18. In addition, the Ki on BZP Rat Brain (dose response curve, read-out: Ki, BZP Rat Brain) was 6.59 µM; at BZP Rat Brain (single determination, read-out: BZP Rat Brain Ki), 6.59 µM; at hERG (dose response curve, read-out: Ki, HERG), 0.839 µM; on hERG (single determination, read-out: hERG Ki), 0.839 µM. For the same compound, the “LogKi, HERG” value at hERG (setting [1]) is on record as -6.08.
